Patent publication US4161522A, “Method for blocking allergic responses” (The Regents of the University of California, priority 1978, dated 1979)
Ends that are not written are not given here. Peptide text beside a SMILES is read from it. * marks the point of attachment. Octanoyl = CCCCCCCC(=O)*

Columns and labels:
[1] = test system: DBA white mice; assay: Acute toxicity in mice; assay type: in vivo; conditions: for survival 24 to 72 hours post-injection: 1.4 ml total i.d./s.c./i.v./i.p.
Description: Acute toxicity was determined as follows:
DBA white mice (average weight 15 g.) were each injected with 1.4 ml. of a solution of the peptide in phosphate buffered saline, pH 7.4, as follows:
0.1 ml. × 3 intradermally
0.1 ml. × 3 subcutaneously
0.6 ml. intraperitoneally
The peptides and concentrations used were as follows: […]

[2] = test system: Wil-2WT human lymphoblastoid tissue culture cell line; assay: Blocking of binding of I125-tagged IgE to Wil-2WT cells in vitro
Description: In this regard, the 8 carbon chain acyl substituted peptide, octanoyl-Asp-Ser-Asp-Pro-Arg, as well as the […] acyl substituted peptide, acetoyl-Asp-Ser-Asp-Pro-Arg, were prepared by the method outlined in Example 10 above. These peptides were tested, in vitro, for their blocking ability with respect to the Wil-2WT human lymphoblastoid tissue culture cell line as follows.
Wil-2WT cells in culture medium were centrifuged at about 2000 RPM. The separated cells were mixed with minimal essential medium (MEM) and recentrifuged at 2000 RPM. The supernatent was decanted off completely and the residual cells were suspended in MEM+3% human serum albumin (HSA). The cell suspension was divided into suitable aliquots in reaction tubes. Blanks and control reaction tubes were also prepared. To various of the cell suspension tubes, were added known amount of Sha Myeloma E; Sha Myeloma E and octanoyl-Asp-Ser-Asp-Pro-Arg; or Sha Myeloma E and acetoyl-Asp-Ser-Asp-Pro-Arg. After mixing and standing at room temperature for approximately one hour, a known quantity of deaggregated IgE, tagged with radioactive iodine (I^125) was added to the tubes. After standing a short time, the capped tubes were mixed by slow inversion over an hour's time. […] The suspension was then counted on a gamma counter in order to determine the amount of tagged IgE bound to the Wil-2WT cells.

[3] = test system: Prausnitz-Kustner (P-K) reaction; assay: Prausnitz-Kustner (P-K) reaction blocking assay in human volunteers; assay type: in vivo; conditions: peptide approx. 6 μg/ml
Description: The "blocking" activity of the polypeptides of the invention can be assayed by utilization of the classic Prausnitz-Kustner (P-K) reaction. In this classic method, a known allergic serum i.e., one that contains IgE specific for a known antigen or allergen is injected intradermally into a human volunteer. After waiting a period of time, e.g. 20 or more hours, the injected sites are then challenged with a prick or injection of a solution of an antigen that is specific for the IgE in the injected serum. Within the next 10 to 30 minutes a positive reaction is evidenced by the development of a wheal (and flare) at the injected site. The more extensive the diameter of the wheal the more intensive is the allergic reaction. That is, a more extensive wheal indicates a greater release of histamine into the tissues at the injected site. Conversely, the development of wheals of lesser diameter or the absence of any wheal at all indicates diminished allergic reaction and/or no allergic reaction at all. The P-K reaction as noted above is a classic test and is universally known and utilized by allergists.
All of these assays were performed using a single proven safe P-K donor serum that contains IgE specific for guinea pig allergens.
Peptide solutions were either injected intradermally 1 to 24 hours prior to the P-K serum, or mixed with dilutions of the P-K serum for simultaneous injection. Initial tests were performed using the P-K serum at from 1:4 to 1:200 dilutions. Further studies were run at a fixed P-K dilution of 1:32 while the invention peptide solutions were varied to contain from about 1 mM to […] of the peptide being tested. Injected sites on the volunteers were challenged by prick-puncture of guinea pig BCA 1:40 w/v (purchased from Berkeley Biologicals, Inc.).
Human volunteers were chosen who had serum IgE levels below 100 U/ml. (242 ng/ml.) which levels have been previously shown to assure successful P-K reactivity. […] P-K and skin tests were performed on the back and/or forearm. […]

[4] = test system: wheal and flare reaction; assay: Displacement of IgE: direct skin challenge in an individual sensitive to guinea pig antigens; assay type: in vivo, human; conditions: single sensitive individual
Description: It has also been determined that the active polypeptides of the invention appear to have the ability to "displace" IgE from mast cells as well as to prevent the binding of the IgE to the receptors. In a single test, an individual known to have extreme sensitivity to guinea pig antigens, that is a person with a high natural concentration of guinea-pig-antigen-sensitive IgE, was injected with polypeptides in accordance with the invention, and […] reaction to guinea pig antigen was noted.
Specifically, approximately 2 nM each of Asp-Ser-Asp-Pro-Arg and Ala-Asp-Ser-Asp-Pro-Arg were each intradermally injected into 3 marked sites. For comparison, TASME, as well as a control of the buffer diluent alone, was also each injected into 3 marked sites. At one, five and twenty-four hours subsequent to the polypeptide and control injection, one of each peptide and one diluent site were prick-puncture challenged with guinea pig antigen. […] However, at the twenty-four hour challenge, the wheal at the Asp-Ser-Asp-Pro-Arg site was approximately 45% smaller; while at the Ala-Asp-Ser-Asp-Pro-Arg site, the wheal was approximately 23% smaller.

## C[C@H](N)C(=O)N[C@@H](CC(=O)O)C(=O)N[C@@H](CO)C(=O)N[C@@H](CC(=O)O)C(=O)N1CCC[C@H]1C(=O)N[C@@H](CCCNC(=N)N)C(=O)O [Ala-Asp-Ser-Asp-Pro-Arg] (H-ADSDPR-OH)
[1]; 5 μg/ml (375 mg/kg), 6 mice
  survival 24 to 72 hours post-injection: all still living
  post-mortem gross and microscopic examination of tissues and organs: no local or systemic toxico-logical abnormalities

## N=C(N)NCCC[C@H](NC(=O)[C@@H]1CCCN1C(=O)[C@H](CC(=O)O)NC(=O)[C@H](CO)NC(=O)[C@@H](N)CC(=O)O)C(=O)O [Asp-Ser-Asp-Pro-Arg] (H-DSDPR-OH)
[1]; 10 μg/ml (1 mg/kg), 8 mice
  survival 24 to 72 hours post-injection: all still living
  post-mortem gross and microscopic examination of tissues and organs: no local or systemic toxico-logical abnormalities
[1]; 13 μg/ml (1.3 mg/kg), 8 mice
  survival 24 to 72 hours post-injection: all still living
  post-mortem gross and microscopic examination of tissues and organs: no local or systemic toxico-logical abnormalities

## CCCCCCCC(=O)N[C@@H](CC(=O)O)C(=O)N[C@@H](CO)C(=O)N[C@@H](CC(=O)O)C(=O)N1CCC[C@H]1C(=O)N[C@@H](CCCNC(=N)N)C(=O)O [octanoyl-Asp-Ser-Asp-Pro-Arg] (Octanoyl-DSDPR-OH)
[2]; as high as, in several procedures
  blocking of the binding of IgE to Wil-2WT cells, highest seen: ≤ 25%

## acetoyl-Asp-Ser-Asp-Pro-Arg (Ac-DSDPR)
[2]
  blocking ability on Wil-2WT cells (in words): did not exhibit any blocking ability whatsoever

## tosyl-L-arginine sarcosine methylester [TASME]
[3]; highest of six individuals, 0.1 ml per site
  inhibition, individual high: 40%
[3]; lowest of six individuals, 0.1 ml per site
  inhibition, individual low: 0%
[3]; six individuals, 0.1 ml intradermally, 0.05 ml diluted P-K serum containing 0.2 ng IgE, versus control wheal
  average % inhibition (P-K wheal): 24%
[4]; challenge at one and five hours after intradermal injection of approx. 2 nM
  inhibition of the wheal and flare reaction: No inhibition
[4]; challenge at twenty-four hours after intradermal injection of approx. 2 nM
  wheal smaller than at buffered saline diluent site: No reduction
